Test results taken from patent US7572600B2, “Enzymatic activities in chemokine-mediated inflammation” (Chemocentryx, Inc., priority 2004, dated 2009).
“Also recorded” adds a separate entry of the source. Where no end group is shown, it is not given here.

B1: CCL23β Δ24: truncated form of CCL23β lacking the 24-residue N-terminal domain, beginning with the SHAAGtide insertion (protein, listed as Homo sapiens)
chain: MLWRRKIGPQMTLSHAAGFHATSADCCISYTPRSIPCSLLESYFETNSECSKPGVIFLTKKGRRFCANPSDKQVQVCMRMLKLDTRIKTRKN

Key:
CCR1 [1] = molecular target: T1, CCR1 (Homo sapiens, UniProt P32246); assay: Competition binding with 125I-MIP-1α on L1.2-CCR1 cells; parameters: endogenous in cells; host or cells: human CD14+ monocytes from buffy coats
T1 sequence (P32246 1-355): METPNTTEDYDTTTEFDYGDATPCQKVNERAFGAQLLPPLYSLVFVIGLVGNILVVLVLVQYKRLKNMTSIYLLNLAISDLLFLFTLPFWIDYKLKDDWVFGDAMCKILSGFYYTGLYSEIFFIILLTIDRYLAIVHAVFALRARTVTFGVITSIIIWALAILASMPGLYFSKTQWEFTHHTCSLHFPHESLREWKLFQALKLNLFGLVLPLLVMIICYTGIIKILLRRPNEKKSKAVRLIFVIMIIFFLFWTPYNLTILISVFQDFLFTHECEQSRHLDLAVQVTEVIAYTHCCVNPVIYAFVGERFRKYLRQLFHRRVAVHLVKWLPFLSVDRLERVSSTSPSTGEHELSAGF
Method: Binding assay. Competition binding studies were conducted using monocytes, L1.2-CCR1 or L1.2-FPRL1 cells. Cells were incubated for 3 hr at 4° C. with ^125I-MIP-1α (final concentration ˜0.05 nM) or ^125I-WKYMVm (final concentration ˜0.01 nM) in buffer (25 mM HEPES, 140 mM NaCl, 1 mM CaCl2, 5 mM MgCl2 and 0.2% BSA, adjusted to pH 7.1) in the presence of increasing amounts of unlabeled chemokine. Reactions were aspirated onto PEI-treated GF/B glass filters using a cell harvester (Packard). Filters were washed twice (25 mM HEPES, 500 mM NaCl, 1 mM CaCl2, 5 mM MgCl2, adjusted to pH 7.1). Scintillant (MicroScint-10; 35 μl) was added to the filters and counted in a Packard Topcount scintillation counter. Data were analyzed and plotted using Prism (GraphPad Software, San Diego, Calif.).

FPRL1 = molecular target: T2, FPRL1 (Homo sapiens, UniProt P25090); assay: Functional assays on FPRL1 (receptor signaling and chemotaxis); type: cell-based; parameters: endogenous in cells; host or cells: human CD14+ monocytes from buffy coats
T2 sequence (P25090 1-351): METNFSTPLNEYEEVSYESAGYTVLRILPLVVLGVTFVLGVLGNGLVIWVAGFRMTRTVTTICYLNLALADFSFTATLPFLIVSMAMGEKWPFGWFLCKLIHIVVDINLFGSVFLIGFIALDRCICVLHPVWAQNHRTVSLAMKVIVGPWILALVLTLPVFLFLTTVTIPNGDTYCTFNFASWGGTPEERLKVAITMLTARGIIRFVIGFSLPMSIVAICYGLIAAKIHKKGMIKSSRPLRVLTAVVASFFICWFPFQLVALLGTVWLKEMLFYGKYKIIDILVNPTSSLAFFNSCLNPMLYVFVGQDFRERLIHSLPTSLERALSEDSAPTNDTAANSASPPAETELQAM
Method: (§1) Receptor signaling assay. For individual measurements, cells were loaded for 45 min at room temperature with 2 μM indo-1/AM (Invitrogen, Carlsbad Calif.) in culture medium, then washed with 10 ml PBS and resuspended at 10^6 cells/ml in HBSS containing 0.1% BSA. Cytosolic calcium levels were determined using a Photon Technology International fluorimeter (excitation at 350 nm, ratio of dual emission at 400 and 490 nm). For measuring calcium dose responses, cells were analyzed with a Fluorometric Imaging Plate Reader 384 (FLIPR^384) (Molecular Devices, Sunnyvale, Calif.). Cells were loaded for 1 hr at 37° C. with 5 μM fluo-4 in HBSS with 0.1% BSA, then washed, transferred to black-wall 96-well plates, and subsequently excited at 505 nm with emission recorded at 530 nm with a standard protocol provided by the manufacture. Cells were stimulated with agonists 20 s after the monitoring of fluorescence began. Data were analyzed and plotted in arbitrary units of fluorescence using Prism. To ensure that responses were specific to FPRL1, we utilized a selective small-molecule antagonist of human FPRL1, generated by ChemoCentryx, which was optimized from a high throughput compound library screening approach.
Chemotaxis assays. L1.2-CCR1 and L1.2-FPRL1 transfectants, monocytes and neutrophils were collected by centrifugation and resuspended in HBSS with 0.1% BSA. The assays were performed in 96-well ChemoTx® microplates (Neuroprobe, Rockville, Md.). Chemokines were diluted in HBSS with 0.1% BSA and added to the lower wells (final volume 29 μL), then 20 μL of cell suspension (5×10^6 cells/mL for monocytes; 2.5×10^6 cells/mL for neutrophils) were added to the polycarbonate filters (5 μm pore size for monocytes and FPRL1 transfectants; 3 μm pore size for neutrophils). After incubation for 90 min (37° C., 100% humidity, 5% CO2), the filters were removed and the cells that migrated into the lower chamber were quantified by using the CyQuant cell proliferation assay kit (Molecular Probes, Oreg.).

CCR1 [2] = molecular target: T1, CCR1; assay: Calcium mobilization in murine L1.2 cells expressing human CCR1; type: cell-based; parameters: expressed in transfected cells; host or cells: murine L1.2 cells (G-418 selected transfectant); conditions: L1.2 cells stably expressing human CCR1
Method: Calcium Mobilization Assay. Cells were loaded for 1 hour with 2 μM indo-1/AM dye (Molecular Probes, Eugene, Oreg.) in culture medium, then washed with 10 ml PBS and resuspended at 10^6/ml in HBSS containing 1% FBS. Cytosolic calcium responses were determined using a Photon Technology International (Lawrenceville, N.J.) fluorimeter, with excitation at 350 nm and dual emission at 400 and 490 nm. Alternatively, cells were loaded with 5 μg/ml Fluo-4 AM dye (Molecular Probes, Eugene, Oreg.), then washed and analyzed on a Fluorometric Imaging Plate Reader 384 (FLIPR^384 Molecular Devices, Sunnyvale, Calif.), with 505 nm excitation and 530 nm emission.
as §1

Molecule | inhibition of 125I-MIP-1α binding (CCR1 [1]) | fold more potent than all other natural agents posited to act on FPRL1 (FPRL1) [fold] | EC50 (FPRL1; isolated peptide) [nM] | potency and efficacy versus other purported natural FPRL1 ligands (SAA, beta-amyloid protein 42, lipoxin A4, fMLP) (FPRL1; receptor signaling and chemotaxis assays) | calcium mobilization in the CCR1 transfectant (CCR1 [2])
MLWRRKIGPQMTLSHAAG [SHAAGtide] | unable to inhibit binding; also recorded: does not bind CCR1 | 50 to 100 | 10 to 30 | more potent and efficacious | 
B1 |  |  |  |  | effective at inducing calcium mobilization
